The text below walks through data of patent US8129398B2 (priority 2008, dated 2012).

For the experiment, the target named is T1, HIV-integrase (Human immunodeficiency virus type 1 group M subtype B, UniProt P12497).
T1 construct: Recombinant integrase (0.26 ng) was incubated with the beads
The experiment can be described thus: HIV-Integrase Inhibition Activity (SPA bead integration assay with P33 labeled target DNA). It counts as biochemical. The following applies: recombinant integrase, class symbols; read-out: in vitro activity. In a few lines: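 Strand integration read as bead-proximity CPM after P33 target DNA (0.1 fmol) and inhibitor were added to washed integrase–substrate DNA complexes on SPA beads. Enzyme bound 90 min at 37° C; EDTA (10 mM final) terminated reaction; IC50 graded A/B/C.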
For `CN(C)C(=O)C(=O)NC12CCC(CC1)Cn1c2nc(C(=O)NCc2ccc(F)c(Br)c2)c(O)c1=O` [Example 115, N′-(2-((3-Bromo-4-fluorobenzyl)carbamoyl)-3-hydroxy-4-oxo-6,7,8,9-tetrahydro-7,10-ethanopyrimido[1,2-a]azepin-10(4H)-yl)-N,N-dimethylethanediamide], the IC50 is under 10 nM. Turning to `CCOC(=O)N1CCCC1C(=O)NC12CCC(CC1)Cn1c2nc(C(=O)NCc2ccc(F)cc2)c(O)c1=O` (stereo not shown) [Example 397], the IC50 was under 10 nM. To `Cc1ncnn1-c1cc(F)ccc1CNC(=O)c1nc2n(c(=O)c1O)CC1CCC2(NS(C)(=O)=O)CC1` [Example 39, N-(4-Fluoro-2-(5-methyl-1H-1,2,4-triazol-1-yl)benzyl)-3-hydroxy-10-((methylsulfonyl)amino)-4-oxo-4,6,7,8,9,10-hexahydro-7,10-ethanopyrimido[1,2-a]azepine-2-carboxamide] belongs under 10 nM; to `CN(CC1CCCO1)C(=O)C(=O)NC12CCC(CC1)Cn1c2nc(C(=O)NCc2ccc(F)cc2)c(O)c1=O` (stereo not shown) [Example 94, N′-(2-((4-Fluorobenzyl)carbamoyl)-3-hydroxy-4-oxo-6,7,8,9-tetrahydro-7,10-ethanopyrimido[1,2-a]azepin-10(4H)-yl)-N-methyl-N-(tetrahydro-2-furanylmethyl)ethanediamide], under 10 nM; to `Cc1cc(CNC(=O)c2nc3n(c(=O)c2O)CC2CCC3(NC(=O)Nc3ccccn3)CC2)ccc1F` [Example 325, 7,10-Ethanopyrimido[1,2-a]azepine-2-carboxamide, N-[(4-fluoro-3-methylphenyl)methyl]-4,6,7,8,9,10-hexahydro-3-hydroxy-4-oxo-10-[[(2-pyridinylamino)carbonyl]amino]-], under 10 nM. Then `CN(C)C(=O)C(=O)NC12CCC(Cn3c1nc(C(=O)NCc1ccc(F)cc1)c(O)c3=O)C2` (single isomer, unassigned) [Example 411, Ethanediamide, N′-[2-[[[(4-fluorophenyl)methyl]amino]carbonyl]-6,7,8,9-tetrahydro-3-hydroxy-4-oxo-7,11-methanopyrimido[1,2-a]azepin-10(4H)-yl]-N,N-dimethyl-], with under 10 nM. Then `Cc1cc(C(=O)N(C)C23CCC(CC2)Cn2c3nc(C(=O)NCc3ccc(F)cc3)c(O)c2=O)no1` [Example 154, N-(4-Fluorobenzyl)-3-hydroxy-10-(methyl((5-methyl-3-isoxazolyl)carbonyl)amino)-4-oxo-4,6,7,8,9,10-hexahydro-7,10-ethanopyrimido[1,2-a]azepine-2-carboxamide], with under 10 nM; and `CC(=O)N1CC(F)(F)C[C@H]1C(=O)NC12CCC(CC1)Cn1c2nc(C(=O)NCc2ccc(F)c(C)c2)c(O)c1=O` [Example 289, 7,10-Ethanopyrimido[1,2-a]azepine-2-carboxamide, 10-[[[(2S)-1-acetyl-4,4-difluoro-2-pyrrolidinyl]carbonyl]amino]-N-[(4-fluoro-3-methylphenyl)methyl]-4,6,7,8,9,10-hexahydro-3-hydroxy-4-oxo-], with under 10 nM. `Cc1cc(CNC(=O)c2nc3n(c(=O)c2O)CC2CCC3(NS(=O)(=O)c3cn(C)c(=O)n(C)c3=O)CC2)ccc1F` [Example 293, 7,10-Ethanopyrimido[1,2-a]azepine-2-carboxamide, N-[(4-fluoro-3-methylphenyl)methyl]-4,6,7,8,9,10-hexahydro-3-hydroxy-4-oxo-10-[[(1,2,3,4-tetrahydro-1,3-dimethyl-2,4-dioxo-5-pyrimidinyl)sulfonyl]amino]-]: the IC50 was under 10 nM. Then `CN(C)C(=O)C(=O)NC12COC(CCn3c1nc(C(=O)NCc1ccc(F)cc1)c(O)c3=O)C2` (stereo not shown) [Example 218, N′-(2-((4-Fluorobenzyl)carbamoyl)-3-hydroxy-4-oxo-7,8-dihydro-4 H,6H-8,11-methanopyrimido[2,1-d][1,5]oxazocin-11(10H)-yl)-N,N-dimethylethanediamide], with under 10 nM; and `Cc1cc(CNC(=O)c2nc3n(c(=O)c2O)CC2CCC3(NC(=O)c3cc(-c4cnn(C)c4)on3)CC2)ccc1F` [Example 292, 7,10-Ethanopyrimido[1,2-a]azepine-2-carboxamide, N-[(4-fluoro-3-methylphenyl)methyl]-4,6,7,8,9,10-hexahydro-3-hydroxy-10-[[[5-(1-methyl-1H-pyrazol-4-yl)-3-isoxazolyl]carbonyl]amino]-4-oxo-], with under 10 nM. To `O=C(NCc1ccc(F)cc1)c1nc2n(c(=O)c1O)CC1CCC2(NC(=O)C2CCCN2S(=O)(=O)C2CCCC2)CC1` (stereo not shown) [Example 408] belongs under 10 nM; to `CN(C)C(=O)C(=O)NC12CCC(CC1)Cn1c2nc(C(=O)NCc2cccc(-n3cccc3)c2)c(O)c1=O` [Example 126, N′-(3-Hydroxy-4-oxo-2-((3-(1H-pyrrol-1-yl)benzyl)carbamoyl)-6,7,8,9-tetrahydro-7,10-ethanopyrimido[1,2-a]azepin-10(4H)-yl)-N,N-dimethylethanediamide], under 10 nM. Then `Cc1cc(CNC(=O)c2nc3n(c(=O)c2O)CC2CCC3(NC(=O)Nc3cccnc3)CC2)ccc1F` [Example 326, 7,10-Ethanopyrimido[1,2-a]azepine-2-carboxamide, N-[(4-fluoro-3-methylphenyl)methyl]-4,6,7,8,9,10-hexahydro-3-hydroxy-4-oxo-10-[[(3-pyridinylamino)carbonyl]amino]-], with under 10 nM; and `Cn1ccc(C(=O)NC23CCC(CC2)Cn2c3nc(C(=O)NCc3ccc(F)cc3)c(O)c2=O)n1` [Example 245, 7,10-Ethanopyrimido[1,2-a]azepine-2-carboxamide, N-[(4-fluorophenyl)methyl]-4,6,7,8,9,10-hexahydro-3-hydroxy-10-[[(1-methyl-1H-pyrazol-3-yl)carbonyl]amino]-4-oxo-], with under 10 nM. For `O=C(NC12CCC(CC1)Cn1c2nc(C(=O)NCc2ccc(F)cc2)c(O)c1=O)C(=O)N1CCC[C@H]1CO` [Example 69, N-(4-Fluorobenzyl)-3-hydroxy-10-((((2S)-2-(hydroxymethyl)-1-pyrrolidinyl)(oxo)acetyl)amino)-4-oxo-4,6,7,8,9,10-hexahydro-7,10-ethanopyrimido[1,2-a]azepine-2-carboxamide], the IC50 is under 10 nM. Then `CN1CCN(C(=O)C(=O)NC23CCC(CC2)Cn2c3nc(C(=O)NCc3ccc(F)cc3)c(O)c2=O)CC1` [Example 71, N-(4-Fluorobenzyl)-3-hydroxy-10-(((4-methyl-1-piperazinyl)(oxo)acetyl)amino)-4-oxo-4,6,7,8,9,10-hexahydro-7,10-ethanopyrimido[1,2-a]azepine-2-carboxamide], with under 10 nM. Then `O=C(NC12CCC(CC1)Cn1c2nc(C(=O)NCc2ccc(F)cc2)c(O)c1=O)C(=O)N1CC[C@@H](F)C1` [Example 104, N-(4-Fluorobenzyl)-10-((((3R)-3-fluoro-1-pyrrolidinyl)(oxo)acetyl)amino)-3-hydroxy-4-oxo-4,6,7,8,9,10-hexahydro-7,10-ethanopyrimido[1,2-a]azepine-2-carboxamide], with under 10 nM; and `O=C(NC12CCC(CC1)Cn1c2nc(C(=O)NCc2ccc(F)cc2)c(O)c1=O)C(=O)N1CCN(C(=O)c2ccco2)CC1` [Example 143, N-(4-Fluorobenzyl)-10-(((4-(2-furanylcarbonyl)-1-piperazinyl)(oxo)acetyl)amino)-3-hydroxy-4-oxo-4,6,7,8,9,10-hexahydro-7,10-ethanopyrimido[1,2-a]azepine-2-carboxamide], with under 10 nM.
